Results on 23 molecules are retold here after ChEMBL document CHEMBL1687705, “Design, Synthesis, and in Vitro Evaluation of Novel Aminomethyl-pyridines as DPP-4 Inhibitors” (ACS Med Chem Lett, 2010).

Broadly, the IC50 is the concentration needed to halve the response being measured. For orientation: Ki means a measure of affinity in units of concentration, obtained from inhibition or displacement.

One assay concerns the target Dipeptidyl peptidase 4 (Homo sapiens, UniProt P27487). The assay can be described thus: Inhibition of human recombinant DPP4 assessed as Gly-Pro-pNA chromogenic substrate cleavage for 16 mins preincubated with compound for 10 mins before addition of chromogenic substrate.
Assay [1] has as its system HeLa. The assay can be described thus: Cytotoxicity against human HeLa cells at 10 uM. It counts as functional, cell-based.
For assay [2], the system named is HeLa. The assay can be described thus: Cytotoxicity against human HeLa cells. It counts as functional. The following applies: read-out: LC50 (the source's name).
For the next assay, the target named is Dipeptidyl peptidase 8 (Homo sapiens, UniProt Q6V1X1). The assay can be described thus: Inhibition of human recombinant DPP8 assessed as Gly-Pro-pNA chromogenic substrate cleavage for 16 mins preincubated with compound for 10 mins before addition of chromogenic substrate.
Dipeptidyl peptidase 8, sequence (Q6V1X1 whole entry): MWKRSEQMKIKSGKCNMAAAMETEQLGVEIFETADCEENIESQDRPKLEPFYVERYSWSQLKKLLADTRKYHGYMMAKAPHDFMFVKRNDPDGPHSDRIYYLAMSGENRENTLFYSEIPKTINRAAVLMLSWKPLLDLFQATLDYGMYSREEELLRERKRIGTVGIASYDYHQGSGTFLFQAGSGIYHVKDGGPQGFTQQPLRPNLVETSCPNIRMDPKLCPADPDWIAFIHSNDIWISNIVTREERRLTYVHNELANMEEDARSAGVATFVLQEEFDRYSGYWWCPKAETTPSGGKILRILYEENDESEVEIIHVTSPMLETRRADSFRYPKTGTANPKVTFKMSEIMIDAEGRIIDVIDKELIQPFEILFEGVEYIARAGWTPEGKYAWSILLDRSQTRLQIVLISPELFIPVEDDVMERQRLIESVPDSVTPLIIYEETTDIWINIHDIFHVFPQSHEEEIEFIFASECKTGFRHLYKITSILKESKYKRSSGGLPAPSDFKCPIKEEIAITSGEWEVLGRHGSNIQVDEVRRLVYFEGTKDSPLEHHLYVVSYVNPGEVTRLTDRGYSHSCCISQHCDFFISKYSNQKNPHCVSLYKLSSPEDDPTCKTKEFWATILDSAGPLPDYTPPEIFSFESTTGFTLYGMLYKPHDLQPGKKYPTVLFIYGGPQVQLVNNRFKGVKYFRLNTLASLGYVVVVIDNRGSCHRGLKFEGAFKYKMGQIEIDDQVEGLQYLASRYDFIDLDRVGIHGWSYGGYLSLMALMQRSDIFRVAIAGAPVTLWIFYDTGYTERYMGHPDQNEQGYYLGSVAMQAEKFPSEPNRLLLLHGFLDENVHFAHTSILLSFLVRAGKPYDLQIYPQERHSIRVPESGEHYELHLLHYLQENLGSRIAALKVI
The species named for a further assay is Homo sapiens. The assay can be described thus: Selectivity ratio of IC50 for human recombinant DPP8 to IC50 for human recombinant DPP4.

Dipeptidyl peptidase 4, sequence (P27487 whole entry): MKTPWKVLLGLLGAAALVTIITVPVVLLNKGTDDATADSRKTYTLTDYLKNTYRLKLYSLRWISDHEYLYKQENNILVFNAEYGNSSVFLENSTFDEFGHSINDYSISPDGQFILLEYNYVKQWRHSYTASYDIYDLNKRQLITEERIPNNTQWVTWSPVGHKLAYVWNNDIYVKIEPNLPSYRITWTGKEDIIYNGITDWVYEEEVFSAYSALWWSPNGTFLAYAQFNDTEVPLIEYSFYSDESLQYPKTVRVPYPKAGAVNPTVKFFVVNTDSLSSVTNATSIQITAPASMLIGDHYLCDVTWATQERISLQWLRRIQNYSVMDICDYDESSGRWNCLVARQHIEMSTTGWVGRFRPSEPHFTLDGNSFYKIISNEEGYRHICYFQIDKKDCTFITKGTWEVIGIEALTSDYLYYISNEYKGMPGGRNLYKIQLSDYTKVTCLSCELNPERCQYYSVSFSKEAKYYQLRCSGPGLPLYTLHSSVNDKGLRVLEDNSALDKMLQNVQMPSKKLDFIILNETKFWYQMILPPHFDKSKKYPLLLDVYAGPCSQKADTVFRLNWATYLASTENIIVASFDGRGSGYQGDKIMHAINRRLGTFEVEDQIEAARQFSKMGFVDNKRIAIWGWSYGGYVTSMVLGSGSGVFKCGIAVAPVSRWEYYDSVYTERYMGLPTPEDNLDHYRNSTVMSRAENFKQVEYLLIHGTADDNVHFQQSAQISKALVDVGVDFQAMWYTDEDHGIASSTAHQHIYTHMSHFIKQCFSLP

`Cc1nc(C(=O)NC2CC2)cc(-c2ccc(Cl)cc2Cl)c1CN`: the 50% inhibitory concentration (IC50) at Dipeptidyl peptidase 4 is under 50 µM. Further, the Activity entry in the assay on HeLa [1] is “Not toxic”.

In the case of `Cc1nc(CN)cc(-c2ccc(Cl)cc2)c1C(N)=O`, the IC50 at Dipeptidyl peptidase 4 was over 50 µM.

Regarding `Cc1nc(C(=O)N2CCOCC2)cc(-c2ccc(Cl)cc2Cl)c1CN`, the 50% inhibitory concentration (IC50) at Dipeptidyl peptidase 4 was under 50 µM. Moreover, in the assay on HeLa [1], the Activity result is “Not toxic”.

In the case of `CNC(=O)c1cc(-c2ccc(Cl)cc2)c(CN)c(C)n1`, on Dipeptidyl peptidase 4, the IC50 is under 50 µM.

`CNC(=O)c1cc(-c2ccc(Cl)cc2Cl)c(CN)c(C)n1`: the Activity entry in the assay with HeLa [1] is “Not toxic”. The CC50 in the assay with HeLa [2] is over 10 µM.

On to `Cc1nc(C(=O)N2CCCC2)cc(-c2ccc(Cl)cc2Cl)c1CN`, for which the Activity result in the assay on HeLa [1] is “Not toxic”. In the assay with HeLa [2], the CC50 was over 10 µM.

As for `Cc1nc(C(=O)N2CCOCC2)cc(-c2ccc(F)cc2)c1CN`, the IC50 on Dipeptidyl peptidase 4 was under 50 µM.

Take `Cc1nc(C(N)=O)cc(-c2ccccc2F)c1CN`: on Dipeptidyl peptidase 4, the IC50 was under 50 µM.

For the molecule `Cc1cc(NC(=O)c2cc(-c3ccc(F)cc3F)c(CN)c(C)n2)no1`, the Ki at Dipeptidyl peptidase 8 worked out at 179 µM. Also, in the assay on HeLa [2], the CC50 is over 10 µM.

Consider `Cc1nc(C(=O)N2CCCC2)cc(-c2ccccc2F)c1CN`, for which the IC50 on Dipeptidyl peptidase 4 was under 50 µM.

Take `COC(=O)CNC(=O)c1cc(-c2ccc(F)cc2F)c(CN)c(C)n1`: the IC50 on Dipeptidyl peptidase 4 is under 50 µM.

As for `Cc1nc(C(=O)NC2CC2)cc(-c2ccc(F)cc2F)c1CN`, on Dipeptidyl peptidase 8, the Ki was 182 µM. The CC50 in the assay with HeLa [2] is over 10 µM.

For the molecule `Cc1nc(C(=O)NC2CC2)cc(-c2ccccc2F)c1CN`, the IC50 at Dipeptidyl peptidase 4 is under 50 µM.

On to `Cc1nc(C(=O)N2CCOCC2)cc(-c2ccc(F)cc2F)c1CN`, for which the IC50 on Dipeptidyl peptidase 4 is under 50 µM.

Consider `Cc1nc(C(N)=O)cc(-c2ccc(Cl)cc2Cl)c1CN`, for which the Activity entry in the assay on HeLa [1] is “Not toxic”. In addition, the CC50 in the assay with HeLa [2] is over 10 µM.

As to `Cc1nc(C(=O)NCC#N)cc(-c2ccc(Cl)cc2Cl)c1CN`, in the assay with HeLa [1], the Activity entry was “Not toxic”. For the same molecule, in the assay on HeLa [2], the CC50 was over 10 µM.

For the molecule `Cc1nc(C(=O)NCC(N)=O)cc(-c2ccc(Cl)cc2Cl)c1CN`, the 50% inhibitory concentration (IC50) on Dipeptidyl peptidase 4 was under 50 µM. Also, the Activity result with HeLa [1] is “Not toxic”. Besides, the Ratio IC50 in the assay listed under Homo sapiens was 6600.

In the case of `Cc1nc(C(=O)NC2CC2)cc(-c2ccc(F)cc2)c1CN`, the Ki on Dipeptidyl peptidase 8 came to 106 µM. In addition, the CC50 in the assay on HeLa [2] was over 10 µM.

Consider `Cc1nc(C(=O)O)cc(-c2ccc(F)cc2)c1CN`, for which the 50% inhibitory concentration (IC50) on Dipeptidyl peptidase 4 is under 50 µM.

As to `Cc1nc(CN)cc(-c2ccccc2F)c1C(N)=O`, the IC50 at Dipeptidyl peptidase 4 was over 50 µM.

Take `Cc1nc(C(=O)N2CCCC2)cc(-c2ccc(F)cc2)c1CN`: at Dipeptidyl peptidase 8, the Ki was 137 µM. Moreover, the CC50 in the assay with HeLa [2] is over 10 µM.

Consider `Cc1nc(C(=O)O)cc(-c2ccc(F)cc2F)c1CN`, for which the IC50 on Dipeptidyl peptidase 4 is under 50 µM.

With `Cc1nc(C(=O)N2CCCC2)cc(-c2ccc(F)cc2F)c1CN`, on Dipeptidyl peptidase 4, the IC50 was under 50 µM.
